The values below come from US8779161B2, “Asenapine maleate” (Dr. Reddy's Laboratories Limited, priority 2010, dated 2014).

Series [1] can be described thus: Particle size distribution d(10), d(50), d(90). In kind it is physicochemical. The source says: For example, particle size distributions of asenapine maleate particles may be measured using microscopy or light scattering equipment, such as, for example, a Malvern Master Size 2000 from Malvern Instruments Limited, Malvern, Worcestershire, United Kingdom. The particle size distributions can be expressed, for example, in terms of d(90), d(50), and d(10) values, where the values (e.g., expressed in μm) are the maximum sizes for 90, 50, and 10 percent of the particles, respectively.
Polymorphs are different solids sharing the same molecular formula, yet having distinct physical properties when compared to other polymorphs of the same formula. As used throughout the disclosure, the D(10), D(50), and D(90) values are useful ways for indicating a particle size distribution. D(90) refers to at least 90 volume percent of the particles having a size smaller than the said value. Likewise, D(10) refers to 10 volume percent of the particles having a size smaller than the said value. D(50) refers to 50 volume percent of the particles having a size smaller than the said value. Methods for determining D(10), D(50), and D(90) include laser diffraction, such as using equipment from Malvern Instruments Ltd. of Malvern, Worcestershire, United Kingdom. HPLC is High Pressure Liquid Chromatography.

Series [2] in a line: Micronization of asenapine maleate monoclinic form: polymorphic form by PXRD after micronizing. In kind it is physicochemical. To be noted: Midas Micronizer 50, nitrogen carrier gas, 4-6 Kg/cm^2; compared with reference pattern of monoclinic polymorph.
Protocol: All PXRD data reported herein are obtained using a Bruker AXS D8 Advance Powder X-ray Diffractometer or a PANalytical X-ray Diffractometer, using copper Kα radiation. Generally, a diffraction angle (2θ) in powder X-ray diffractometry may have permissible variation in the range of ±0.2°. Although the intensities of peaks in the x-ray powder diffraction patterns of different batches of a compound may vary slightly, the peaks and the peak locations are characteristic for a specific polymorphic form. The relative intensities of the PXRD peaks can vary depending on the sample preparation technique, crystal size distribution, various filters used, the sample mounting procedure, and the particular instrument employed. Moreover, instrument variation and other factors can affect the 2-theta values. Therefore, the term “substantially” in the context of PXRD is meant to encompass that peak assignments can vary by plus or minus about 0.2° 2-theta.
The conditions of series [3]: starting with the monoclinic form; WO 2006/106135 A1, Examples 9 and 10 therein; cited from earlier work.
Where [4] appears, read: after micronization, Midas Micronizer 50, nitrogen 4-6 Kg/cm^2.
[5] abbreviates: before micronization (as isolated).

Each structure is given as a SMILES string.

For `CN1C[C@H]2c3ccccc3Oc3ccc(Cl)cc3[C@@H]2C1.O=C(O)/C=C\C(=O)O` [Example 11, Asenapine Maleate Monoclinic Form], in series [1] (setting [4]), the “particle size distribution d(10)” value was 0.994 μm, the “particle size distribution d(50)” value is given as 5.516 μm and the “particle size distribution d(90)” value turned out to be 12.715 μm. In series [1] (setting [5]), the “particle size distribution d(10)” value was 5.671 μm, the “particle size distribution d(50)” value was found to be 24.077 μm and the “particle size distribution d(90)” value was found to be 58.716 μm.
Take `CN1C[C@H]2c3ccccc3Oc3ccc(Cl)cc3[C@@H]2C1.O=C(O)/C=C\C(=O)O` [Example 13, Asenapine Maleate]: in series [1] (setting [4]), the “particle size distribution d(10)” value amounted to 0.887 μm, the “particle size distribution d(50)” value was 4.632 μm and the “particle size distribution d(90)” value is on record as 10.678 μm. In series [1] (setting [5]), the “particle size distribution d(10)” value worked out at 6.269 μm, the “particle size distribution d(50)” value was 35.229 μm and the “particle size distribution d(90)” value was determined as 80.698 μm. The “PXRD Pattern after Micronizing” value in series [2] is recorded as “complies with reference pattern of monoclinic polymorph”.
In the case of `CN1C[C@H]2c3ccccc3Oc3ccc(Cl)cc3[C@@H]2C1.O=C(O)/C=C\C(=O)O` [Example 15, Asenapine Maleate Monoclinic Form], in series [1] (setting [5]), the “particle size distribution d(10)” value was 4.38 μm, the “particle size distribution d(50)” value was found to be 14.42 μm and the “particle size distribution d(90)” value is recorded as 33.11 μm.
On to `CN1C[C@H]2c3ccccc3Oc3ccc(Cl)cc3[C@@H]2C1.O=C(O)/C=C\C(=O)O` [Example 26, Asenapine Maleate], for which the “particle size distribution d(90)” value in series [1] (setting [5]) turned out to be 88 μm.
Take `CN1C[C@H]2c3ccccc3Oc3ccc(Cl)cc3[C@@H]2C1.O=C(O)/C=C\C(=O)O` [form H, asenapine maleate]: in series [3], the “polymorphic form obtained after micronization” value is listed as “Either the monoclinic form, or the orthorhombic form or a mixture of polymorphs was obtained”.
